In ChEMBL document CHEMBL1255438, “Comparative activities of TR-700 (torezolid) against staphylococcal blood isolates collected in Spain” (2010):
Converted amounts (≈) assume the structure as drawn. The source made the active and inactive calls. The rule behind the calls is not given here.

Assays:
Assay type in all cases: functional
Staphylococcus [1] = assay: Antimicrobial activity against oxacillin-susceptible coagulase-negative Staphylococcus aureus by CLSI method
Staphylococcus aureus [2] = assay: Antimicrobial activity against oxacillin-resistant Staphylococcus aureus by CLSI method
Staphylococcus aureus [3] = assay: Antimicrobial activity against oxacillin-susceptible Staphylococcus aureus by CLSI method
Staphylococcus aureus [4] = assay: Antimicrobial activity against oxacillin-susceptible Staphylococcus aureus assessed as percent susceptible strain by CLSI method
Staphylococcus [5] = assay: Antimicrobial activity against oxacillin-resistant coagulase-negative Staphylococcus aureus by CLSI method
Staphylococcus [6] = assay: Antimicrobial activity against linezolid-susceptible coagulase-negative Staphylococcus assessed as percent susceptible strain by CLSI method
Staphylococcus aureus [7] = assay: Antimicrobial activity against linezolid-susceptible Staphylococcus aureus by CLSI method
Staphylococcus [8] = assay: Antimicrobial activity against linezolid-susceptible coagulase-negative Staphylococcus by CLSI method
Staphylococcus [9] = assay: Antimicrobial activity against linezolid-resistant coagulase-negative Staphylococcus assessed as percent susceptible strain by CLSI method
[10] = Antimicrobial activity against oxacillin-susceptible coagulase-negative Staphylococcus aureus assessed as percent susceptible strain by CLSI method
Staphylococcus aureus [11] = assay: Antimicrobial activity against methicillin-resistant Staphylococcus aureus by CLSI method
Staphylococcus [12] = assay: Antimicrobial activity against linezolid-resistant coagulase-negative Staphylococcus by CLSI method
Staphylococcus aureus [13] = assay: Antimicrobial activity against linezolid-resistant Staphylococcus aureus by CLSI method
Staphylococcus aureus [14] = assay: Antimicrobial activity against linezolid-susceptible Staphylococcus aureus assessed as percent susceptible strain by CLSI method
Staphylococcus [15] = assay: Antimicrobial activity against Linezolid and methicillin-resistant coagulase-negative Staphylococcus by CLSI method

Question: For CC(=O)N[C@@H]1[C@H](Oc2c3cc4cc2Oc2ccc(cc2Cl)[C@@H](O[C@@H]2O[C@@H](CO)[C@@H](O)[C@H](O)[C@@H]2NC(C)=O)[C@@H]2NC(=O)[C@H](NC(=O)[C@@H]4NC(=O)[C@H]4NC(=O)[C@@H](Cc5ccc(c(Cl)c5)O3)NC(=O)[C@H](N)c3ccc(O)c(c3)Oc3cc(O)cc4c3)c3ccc(O)c(c3)-c3c(O[C@H]4O[C@H](CO)[C@@H](O)[C@@H](O)[C@@H]4O)cc(O)cc3[C@@H](C(=O)O)NC2=O)O[C@@H](CO)[C@@H](O)[C@@H]1O, which MIC50 (Staphylococcus [1]) is on record?
Answer: 2 µg/mL (≈ 1.13 µM)

Question: And the MIC90 (Staphylococcus [1])?
Answer: 4 µg/mL (≈ 2.26 µM)

Question: What about the MIC90 (Staphylococcus aureus [2]) of the same molecule?
Answer: 1 µg/mL (≈ 0.566 µM)

Question: What about the MIC50 (Staphylococcus aureus [3]) of the same molecule?
Answer: ≤ 0.5 µg/mL

Question: And the MIC90 (Staphylococcus aureus [3])?
Answer: 1 µg/mL (≈ 0.566 µM)

Question: And the Activity (Staphylococcus aureus [4])?
Answer: 100%

Question: What about the MIC50 (Staphylococcus [5]) of the same molecule?
Answer: 2 µg/mL (≈ 1.13 µM)

Question: What about the MIC90 (Staphylococcus [5]) of the same molecule?
Answer: 8 µg/mL (≈ 4.53 µM)

Question: What about the Activity (Staphylococcus [6]) of the same molecule?
Answer: 94.5%

Question: And the MIC90 (Staphylococcus aureus [7])?
Answer: 1 µg/mL (≈ 0.566 µM)

Question: What about the MIC50 (Staphylococcus [8]) of the same molecule?
Answer: 2 µg/mL (≈ 1.13 µM)

Question: What about the MIC90 (Staphylococcus [8]) of the same molecule?
Answer: 8 µg/mL (≈ 4.53 µM)

Question: What about the Activity (Staphylococcus [9]) of the same molecule?
Answer: 80%

Question: And the Activity [10]?
Answer: 100%

Question: What about the Activity (Staphylococcus aureus [11]) of the same molecule?
Answer: Active

Question: What about the MIC50 (Staphylococcus [12]) of the same molecule?
Answer: 4 µg/mL (≈ 2.26 µM)

Question: What about the MIC50 (Staphylococcus aureus [13]) of the same molecule?
Answer: 1 µg/mL (≈ 0.566 µM)

Question: What about the Activity (Staphylococcus aureus [14]) of the same molecule?
Answer: 100%

Question: Which MIC50 (Staphylococcus [1]) does the source give for CCCCCCCCCC(=O)N[C@@H](Cc1c[nH]c2ccccc12)C(=O)N[C@H](CC(N)=O)C(=O)N[C@@H](CC(=O)O)C(=O)N[C@@H]1C(=O)NCC(=O)N[C@@H](CCCN)C(=O)N[C@@H](CC(=O)O)C(=O)N[C@H](C)C(=O)N[C@@H](CC(=O)O)C(=O)NCC(=O)N[C@H](CO)C(=O)N[C@@H]([C@H](C)CC(=O)O)C(=O)N[C@@H](CC(=O)c2ccccc2N)C(=O)O[C@@H]1C here?
Answer: 0.25 µg/mL (≈ 0.154 µM)

Question: And the MIC90 (Staphylococcus [1])?
Answer: 0.5 µg/mL (≈ 0.309 µM)

Question: What about the MIC50 (Staphylococcus aureus [2]) of the same molecule?
Answer: 0.5 µg/mL (≈ 0.309 µM)

Question: And the MIC90 (Staphylococcus aureus [2])?
Answer: 0.5 µg/mL (≈ 0.309 µM)

Question: And the MIC50 (Staphylococcus aureus [3])?
Answer: 0.25 µg/mL (≈ 0.154 µM)

Question: What about the MIC90 (Staphylococcus aureus [3]) of the same molecule?
Answer: 0.5 µg/mL (≈ 0.309 µM)

Question: And the Activity (Staphylococcus aureus [4])?
Answer: 100%

Question: What about the MIC50 (Staphylococcus [5]) of the same molecule?
Answer: 0.25 µg/mL (≈ 0.154 µM)

Question: And the MIC90 (Staphylococcus [5])?
Answer: 0.5 µg/mL (≈ 0.309 µM)

Question: What about the Activity (Staphylococcus [6]) of the same molecule?
Answer: 100%

Question: And the MIC50 (Staphylococcus aureus [7])?
Answer: 0.25 µg/mL (≈ 0.154 µM)

Question: And the MIC90 (Staphylococcus aureus [7])?
Answer: 0.5 µg/mL (≈ 0.309 µM)

Question: And the MIC50 (Staphylococcus [8])?
Answer: 0.25 µg/mL (≈ 0.154 µM)

Question: What about the MIC90 (Staphylococcus [8]) of the same molecule?
Answer: 0.5 µg/mL (≈ 0.309 µM)

Question: And the Activity [10]?
Answer: 100%

Question: What about the Activity (Staphylococcus aureus [11]) of the same molecule?
Answer: Active

Question: And the MIC50 (Staphylococcus [12])?
Answer: 0.5 µg/mL (≈ 0.309 µM)

Question: And the MIC (Staphylococcus [15])?
Answer: 0.5 µg/mL (≈ 0.309 µM)

Question: What about the MIC50 (Staphylococcus aureus [13]) of the same molecule?
Answer: 0.5 µg/mL (≈ 0.309 µM)

Question: What about the Activity (Staphylococcus aureus [14]) of the same molecule?
Answer: 100%
